Test results as given in US20240074997A1 (priority 2022, published 2024).
Values after ≈ are worked out from the molar mass of the structure shown.

What was measured:
[1] = target: T1, glucocorticoid receptor recombinant human protein, ligand binding domain (Homo sapiens, UniProt P04150); experiment: glucocorticoid receptor LBD coregulator-derived peptide array; format: biochemical; conditions: Example 2, 0.1 mM vs solvent 2% DMSO, FIG. 6
T1 construct: purchased Thermo Fisher Scientific A15668
T1 sequence (P04150 524-758 limits assumed): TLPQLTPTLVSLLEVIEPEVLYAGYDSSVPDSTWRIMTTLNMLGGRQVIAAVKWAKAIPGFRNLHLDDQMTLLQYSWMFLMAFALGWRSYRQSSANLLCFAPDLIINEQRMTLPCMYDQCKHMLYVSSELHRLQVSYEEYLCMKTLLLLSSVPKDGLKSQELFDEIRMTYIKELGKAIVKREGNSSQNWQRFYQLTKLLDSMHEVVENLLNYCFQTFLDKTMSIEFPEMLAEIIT
Experimental: EXAMPLE 1: Interactions between the glucocorticoid receptor ligand binding domain (LBD) and coregulator-derived peptides were determined using the method as described by Zalachoras et al 2009^xl. Each peptide array consisting of 11 coregulator peptides as described in Table 1 were incubated with a reaction mixture of 1 nM purified glucocorticoid receptor recombinant human protein, ligand binding domain, (Thermo Fisher Scientific, cat #A15668), ALEXA488-conjugated anti-Glutathione S-Transferase (GST) antibody and buffer F (PV4689, A-11131, and PV4547; Invitrogen). […] Incubation was performed at 20° C. on the peptide array, using one two arrays per condition. glucocorticoid receptor binding to each peptide on the array, reflected by fluorescent signal, was quantified by image analysis using R-based software (Precision Medicine Lab). […] Glucocorticoid receptor binding to each peptide on the array, reflected by fluorescent signal, was quantified by image analysis using R-based software (Precision Medicine Lab). […]
The use of glucocorticoid receptor LBD was as described in Experiment 1. […] Glucocorticoid receptor binding to each peptide on the array, reflected by fluorescent signal, was quantified by image analysis using R-based software (Precision Medicine Lab).

zebrafish larvae = experiment: Zebrafish inflammation model (tail fin clip, neutrophil migration); format: in vivo; conditions: 4 hours, clipped 3 day old larvae, p<0.001 vs. Vehicle
From the text: The details of this model have been described previously (Xie, Y., Meijer, […]. Modeling Inflammation in Zebrafish for the Development of Anti-inflammatory Drugs. Front. Cell Dev. Biol. 8, 620984 (2021)). In short, a zebrafish model with fluorescently labeled neutrophils is used. The tip of the tail fin of 3 day old zebrafish larvae are clipped. As a result, a local inflammatory response is initiated and evokes to leukocyte migration towards the wound. The number of attracted neutrophils is recorded and serves as parameters for inflammation. […] (Significance ***: p<0.001, as determined by Student's t-Test vs. Vehicle)

RM-1 cells = conditions: cited from earlier work
[2] = cited from earlier work
RARγ = target: T2, RARγ (Homo sapiens, UniProt P13631); conditions: cited from earlier work
T2 sequence (P13631 1-454): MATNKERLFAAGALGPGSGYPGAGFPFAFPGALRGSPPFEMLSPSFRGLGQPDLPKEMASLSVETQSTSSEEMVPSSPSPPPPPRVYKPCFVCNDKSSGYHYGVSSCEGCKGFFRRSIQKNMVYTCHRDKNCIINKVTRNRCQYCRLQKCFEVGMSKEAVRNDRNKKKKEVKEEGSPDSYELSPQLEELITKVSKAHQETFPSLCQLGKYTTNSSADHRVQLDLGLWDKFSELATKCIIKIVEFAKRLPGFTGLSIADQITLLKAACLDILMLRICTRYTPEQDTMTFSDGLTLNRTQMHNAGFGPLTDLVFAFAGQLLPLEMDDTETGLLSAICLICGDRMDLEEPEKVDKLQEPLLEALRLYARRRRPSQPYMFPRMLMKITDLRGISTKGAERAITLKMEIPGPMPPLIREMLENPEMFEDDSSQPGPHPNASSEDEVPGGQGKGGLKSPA

[3] = cited from earlier work; remark: listed apart in the source
[4] = cited from earlier work; remark: listed apart in the source
RARβ = target: T3, RARβ (Homo sapiens, UniProt P10826); conditions: cited from earlier work
T3 sequence (P10826 1-455): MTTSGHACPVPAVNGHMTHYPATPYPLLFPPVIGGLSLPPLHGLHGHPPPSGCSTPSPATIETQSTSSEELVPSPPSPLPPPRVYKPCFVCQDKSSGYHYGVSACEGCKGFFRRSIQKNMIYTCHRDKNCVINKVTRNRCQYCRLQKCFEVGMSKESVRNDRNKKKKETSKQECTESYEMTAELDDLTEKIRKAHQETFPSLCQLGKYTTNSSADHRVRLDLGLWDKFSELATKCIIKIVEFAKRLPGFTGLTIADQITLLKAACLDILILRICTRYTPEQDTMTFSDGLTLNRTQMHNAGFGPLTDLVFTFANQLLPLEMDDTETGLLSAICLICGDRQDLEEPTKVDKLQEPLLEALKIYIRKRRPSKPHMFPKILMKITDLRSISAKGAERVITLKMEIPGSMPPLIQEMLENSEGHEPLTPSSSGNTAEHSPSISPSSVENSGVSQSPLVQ

[5] = cited from earlier work; remark: listed apart in the source
glucocorticoid receptor = target: T4, glucocorticoid receptor (Homo sapiens, UniProt P04150); conditions: cited from earlier work
T4 sequence (P04150 1-777): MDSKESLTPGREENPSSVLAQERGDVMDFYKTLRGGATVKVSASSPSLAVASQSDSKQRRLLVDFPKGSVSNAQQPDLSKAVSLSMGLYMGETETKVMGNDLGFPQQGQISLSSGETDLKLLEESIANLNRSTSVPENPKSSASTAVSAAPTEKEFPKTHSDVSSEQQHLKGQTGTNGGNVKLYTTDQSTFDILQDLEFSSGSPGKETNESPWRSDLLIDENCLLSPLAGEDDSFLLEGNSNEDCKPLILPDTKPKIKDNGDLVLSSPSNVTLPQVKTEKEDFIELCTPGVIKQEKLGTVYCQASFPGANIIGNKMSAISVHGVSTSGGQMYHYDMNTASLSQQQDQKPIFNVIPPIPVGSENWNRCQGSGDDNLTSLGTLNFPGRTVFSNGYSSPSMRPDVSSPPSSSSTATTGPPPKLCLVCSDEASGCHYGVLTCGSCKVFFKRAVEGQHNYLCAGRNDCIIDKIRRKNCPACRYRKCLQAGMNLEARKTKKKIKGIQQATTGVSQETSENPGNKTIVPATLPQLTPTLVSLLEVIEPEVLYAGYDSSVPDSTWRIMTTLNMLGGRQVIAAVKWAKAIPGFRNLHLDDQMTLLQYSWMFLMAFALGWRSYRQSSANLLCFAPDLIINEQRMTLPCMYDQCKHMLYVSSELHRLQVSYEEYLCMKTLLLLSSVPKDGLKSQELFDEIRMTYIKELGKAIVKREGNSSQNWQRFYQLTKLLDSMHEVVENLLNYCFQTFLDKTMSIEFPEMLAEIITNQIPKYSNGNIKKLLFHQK

Question: For CC1=C(/C=C/C(C)=C/C=C/C(C)=C/C(=O)O)C(C)(C)CCC1 [ATRA, all-trans retinoic acid], which “glucocorticoid receptor-modulating effect (binding profile)” value [1] is on record?
Answer: does not display any glucocorticoid receptor-modulating effect

Question: Which “anti-inflammatory action (number of attracted neutrophils)” value (zebrafish larvae; 1 μM) does the source give for COc1ccc(-c2ccc3cc(C(=O)O)ccc3c2)cc1C12CC3CC(CC(C3)C1)C2 [Adapalene, 6-[3-(1-adamantyl)-4-methoxyphenyl]naphthalene-2-carboxylic acid] here?
Answer: significant anti-inflammatory action

Question: And the “migration ability of RM-1 cells (wound-healing assay)” value (RM-1 cells; dose-dependent)?
Answer: significantly suppressed

Question: What about the “invasiveness of RM-1 cells” value (RM-1 cells; high doses) of the same compound?
Answer: decrease the invasiveness

Question: What about the “degradation in acidic condition” value ([2]; 0.3 M HCl solution, 10 min of boiling) of the same compound?
Answer: 28%

Question: What about the “stability in alkaline condition” value ([2]; 2 M NaOH solution, boiled for 2 h) of the same compound?
Answer: stable

Question: And the “degradation in oxidative conditions” value ([2]; 80° C. for 10 min with 30% hydrogen peroxide solution)?
Answer: 30%

Question: And the “degradation on exposure to UV light” value ([2]; 254 and 366 nm, 12 h)?
Answer: 25%

Question: And the “affinity for RARγ” value (RARγ)?
Answer: high affinity

Question: And the “solubility in dimethyl sulfoxide” value ([3]; 25° C.)?
Answer: > 10000 µg/mL

Question: What about the solubility in dimethylformamide ([3]; 25° C.) of the same compound?
Answer: 5000 µg/mL (≈ 12.1 mM)

Question: What about the solubility in ethanol ([3]; 25° C.) of the same compound?
Answer: < 1000 µg/mL

Question: What about the solubility in tetrahydrofuran ([3]; 25° C.) of the same compound?
Answer: 5000 µg/mL (≈ 12.1 mM)

Question: And the solubility in water [3]?
Answer: poor solubility

Question: What about the pKa [4] of the same compound?
Answer: 4.23

Question: What about the “pKa (strongest acidic)” value [4] of the same compound?
Answer: 3.99

Question: And the “pKa (strongest basic)” value [4]?
Answer: −4.8

Question: And the “affinity for RARβ” value (RARβ)?
Answer: high affinity

Question: For C[C@@H]1C[C@H]2[C@@H]3C[C@H](F)C4=CC(=O)C=C[C@]4(C)[C@@]3(F)[C@@H](O)C[C@]2(C)[C@@]1(OC(=O)C1C(C)(C)C1(C)C)C(=O)OCC#N [GW870086], which “clinical efficacy in atopic dermatitis” value ([5]; atopic dermatitis patients) is on record?
Answer: did not achieve significant clinical efficacy

Question: And the skin atrophy ([5]; healthy adults)?
Answer: does not include skin atrophy

Question: Which potency on transactivation (glucocorticoid receptor) does the source give for C[C@H](NC(=O)[C@H]1CCCO1)[C@H](Oc1ccc(C(=O)O[C@H]2CCCN(C(=O)[C@H]3COC(=O)C3)C2)cc1)c1ccc(C2CC2)cc1 [LEO 134310] here?
Answer: lower potency

Question: What about the potency on transrepression (glucocorticoid receptor) of the same compound?
Answer: high potency

Question: With C[C@H]1C[C@H]2[C@@H]3CCC4=CC(=O)C=C[C@]4(C)[C@@]3(Cl)[C@@H](O)C[C@]2(C)[C@@]1(O)C(=O)CO [beclomethasone] as the compound, how does the “anti-inflammatory action (number of attracted neutrophils)” value (zebrafish larvae; 25 μM) read?
Answer: significant anti-inflammatory action
